Test results as given in US20240083910A1, “AMIDO-SUBSTITUTED PYRIDYL COMPOUNDS AND METHODS OF USE THEREOF FOR THE TREATMENT OF HERPESVIRUSES” (Merck Sharp & Dohme LLC, priority 2020, published 2024).

How the values were obtained:
[1] = biological target: T1, Human cytomegalovirus DNA polymerase (Human cytomegalovirus, UniProt P08546); experiment: CMV polymerase assay (AlphaLISA); type: biochemical; details: HCMV polymerase 0.2 nM; 30 min pre-incubation; 60 min at 37° C.; read-out: CMV (IC50)
T1 construct: made in house; host or cells: SF21 insect cells (baculovirus vector)
Method in brief: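 Baculovirus-expressed polymerase (HCMV 0.2 nM, VZV 0.4 nM) preincubated 30 min with compound, then reacted 60 min at 37 °C with 1.6 nM DIG-primer/59-mer template and low-nM dNTPs including 0.8 nM biotin-dUTP. Incorporation detected by AlphaLISA; IC50 from a 4-parameter fit normalized to DMSO and pre-quenched controls.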

[2] = biological target: T2, varicella zoster virus DNA polymerase (Varicella-zoster virus, UniProt P09252); experiment: VZV polymerase assay (AlphaLISA); type: biochemical; details: VZV polymerase 0.4 nM; 30 min pre-incubation; 60 min at 37° C.
T2 construct: made in house; host or cells: SF21 insect cells (baculovirus vector)
Description: Human cytomegalovirus and varicella zoster virus DNA polymerases were expressed via baculovirus vector in SF21 cells and purified. Heterodimeric nucleic acid substrate used in the herpesvirus polymerase reactions was generated by annealing a 59-mer template to a 17-mer digoxigenin-labeled primer. Polymerase (HCMV final concentration of 0.2 nM; VZV final concentration of 0.4 nM) was combined with an inhibitor compound or DMSO in assay buffer (10 mM HEPES, pH 7.5, 25 mM KCl, 25 mM NaCl, 5 mM MgCl2, 5% glycerol, 0.67 mg/ml bovine serum albumin, and 1 mM tris(2-carboxyethyl)phosphine), and this mixture was pre-incubated for 30 minutes at room temperature in 384-well microtiter plates. The polymerization reaction was initiated by the addition of template/primer substrate (final concentration: 1.6 nM), and dNTPs (final concentration: 24 nM dCTP, 24 nMdGTP, 16 nM dATP, 16 nM dTTP, and 0.8 nM biotin-dUTP). After 60 min incubation at 37° C., reactions were terminated with quench buffer (25 mM HEPES pH 7.5, 100 mM NaCl, 0.25% Tween-20, 12 mM EDTA, and 1 mg/ml bovine serum albumin). Incorporation of biotinylated UTP was detected with 2.5-5 ug/ml anti-DIG AlphaLISA acceptor beads and 5-10 ug/ml streptavidin AlphaLISA donor beads (PerkinElmer). Compound effects were normalized to the window defined by the controls (DMSO only and pre-quenched wells) and were fit using a 4-parameter algorithm to report an IC50.

HCMV Strain AD169 = experiment: Viral qPCR assay, HCMV; type: cell-based, Human cytomegalovirus; details: Human betaherpesvirus 5, AD169, MRC5, 72 h, MRC-5 cells, 0.05-0.1 pfu/cell, growth media or 50% fetal bovine serum, viral genome copies by qPCR, read-out: CMV Cell (EC50)
Method in brief: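 HCMV AD169 at 0.05-0.1 pfu/cell infected MRC-5 cells, added to 10-point 3-fold compound dilutions, in growth medium or medium with 50% FBS; ~72 h at 37°C. Viral genome copies by TaqMan qPCR against plasmid standard curve, normalized to DMSO and uninfected controls; EC50 from 4-parameter fit.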

VZV = experiment: Viral qPCR assay, VZV; type: cell-based, varicella zoster virus; details: Human alphaherpesvirus 3, 72 h, MeWo or MRC5 cells, 0.04-0.1 pfu/cell, growth medium, viral genome copies by qPCR
Method in brief: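 VZV strain Street at 0.04-0.1 pfu/cell infected MeWo or MRC5 cells added to 10-point, 3-fold compound dilutions; ~72 h at 37° C. Viral genome copies by TaqMan qPCR against plasmid standard curve, sometimes normalised to PPIA, scaled between uninfected and DMSO-infected controls; EC50 from 4-parameter fit.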

HSV-1 Strain F = experiment: Viral qPCR assay, HSV-1; type: cell-based, Herpes Simplex Virus type 1; details: Human alphaherpesvirus 1, 72 h, Vero or MRC5 cells, 0.0005-0.004 pfu/cell, growth medium, viral genome copies by qPCR, read-out: HSV1 Cell (EC50)
Method in brief: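 HSV-1 strain F at 0.0005–0.004 pfu/cell infected Vero or MRC5 cells, which were added to a 10-point 3-fold compound dilution and cultured ~72 h at 37 °C. Viral genomes in the lysates were quantified by TaqMan qPCR against a plasmid standard curve, in some runs normalized to cellular PPIA. EC50 came from a 4-parameter fit of % effect.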

T2 sequence (P09252 whole entry): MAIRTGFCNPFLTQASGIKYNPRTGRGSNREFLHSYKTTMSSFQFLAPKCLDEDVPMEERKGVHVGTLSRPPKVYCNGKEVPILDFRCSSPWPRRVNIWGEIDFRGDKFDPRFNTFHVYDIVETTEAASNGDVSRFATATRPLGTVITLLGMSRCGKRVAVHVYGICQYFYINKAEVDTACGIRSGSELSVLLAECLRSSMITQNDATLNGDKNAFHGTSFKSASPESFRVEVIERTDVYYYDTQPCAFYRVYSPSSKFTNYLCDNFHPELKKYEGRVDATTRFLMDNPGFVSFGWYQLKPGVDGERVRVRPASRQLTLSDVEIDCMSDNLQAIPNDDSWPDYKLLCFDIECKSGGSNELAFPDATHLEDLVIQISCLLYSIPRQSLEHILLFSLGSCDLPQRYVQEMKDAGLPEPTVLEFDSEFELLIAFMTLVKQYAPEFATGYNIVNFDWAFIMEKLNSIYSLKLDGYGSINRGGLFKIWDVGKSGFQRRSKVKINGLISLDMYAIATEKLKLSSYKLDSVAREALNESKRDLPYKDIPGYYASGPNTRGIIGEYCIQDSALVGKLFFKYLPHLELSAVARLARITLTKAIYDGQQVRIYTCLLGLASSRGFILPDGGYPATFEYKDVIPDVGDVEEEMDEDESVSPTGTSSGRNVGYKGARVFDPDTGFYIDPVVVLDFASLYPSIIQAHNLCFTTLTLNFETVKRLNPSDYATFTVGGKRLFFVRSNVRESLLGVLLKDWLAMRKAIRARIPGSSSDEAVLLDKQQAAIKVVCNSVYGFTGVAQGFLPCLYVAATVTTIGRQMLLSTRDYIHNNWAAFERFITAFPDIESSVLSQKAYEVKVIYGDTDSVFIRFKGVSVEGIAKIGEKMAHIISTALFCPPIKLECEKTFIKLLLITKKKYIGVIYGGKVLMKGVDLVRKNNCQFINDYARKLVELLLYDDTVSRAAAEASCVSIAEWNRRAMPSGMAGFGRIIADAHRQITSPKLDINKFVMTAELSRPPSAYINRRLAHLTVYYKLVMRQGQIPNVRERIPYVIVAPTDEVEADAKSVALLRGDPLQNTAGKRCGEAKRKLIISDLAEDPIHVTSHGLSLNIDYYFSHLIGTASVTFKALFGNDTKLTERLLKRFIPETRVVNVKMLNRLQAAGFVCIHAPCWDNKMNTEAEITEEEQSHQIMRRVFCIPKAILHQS
T1 sequence (P08546 whole entry): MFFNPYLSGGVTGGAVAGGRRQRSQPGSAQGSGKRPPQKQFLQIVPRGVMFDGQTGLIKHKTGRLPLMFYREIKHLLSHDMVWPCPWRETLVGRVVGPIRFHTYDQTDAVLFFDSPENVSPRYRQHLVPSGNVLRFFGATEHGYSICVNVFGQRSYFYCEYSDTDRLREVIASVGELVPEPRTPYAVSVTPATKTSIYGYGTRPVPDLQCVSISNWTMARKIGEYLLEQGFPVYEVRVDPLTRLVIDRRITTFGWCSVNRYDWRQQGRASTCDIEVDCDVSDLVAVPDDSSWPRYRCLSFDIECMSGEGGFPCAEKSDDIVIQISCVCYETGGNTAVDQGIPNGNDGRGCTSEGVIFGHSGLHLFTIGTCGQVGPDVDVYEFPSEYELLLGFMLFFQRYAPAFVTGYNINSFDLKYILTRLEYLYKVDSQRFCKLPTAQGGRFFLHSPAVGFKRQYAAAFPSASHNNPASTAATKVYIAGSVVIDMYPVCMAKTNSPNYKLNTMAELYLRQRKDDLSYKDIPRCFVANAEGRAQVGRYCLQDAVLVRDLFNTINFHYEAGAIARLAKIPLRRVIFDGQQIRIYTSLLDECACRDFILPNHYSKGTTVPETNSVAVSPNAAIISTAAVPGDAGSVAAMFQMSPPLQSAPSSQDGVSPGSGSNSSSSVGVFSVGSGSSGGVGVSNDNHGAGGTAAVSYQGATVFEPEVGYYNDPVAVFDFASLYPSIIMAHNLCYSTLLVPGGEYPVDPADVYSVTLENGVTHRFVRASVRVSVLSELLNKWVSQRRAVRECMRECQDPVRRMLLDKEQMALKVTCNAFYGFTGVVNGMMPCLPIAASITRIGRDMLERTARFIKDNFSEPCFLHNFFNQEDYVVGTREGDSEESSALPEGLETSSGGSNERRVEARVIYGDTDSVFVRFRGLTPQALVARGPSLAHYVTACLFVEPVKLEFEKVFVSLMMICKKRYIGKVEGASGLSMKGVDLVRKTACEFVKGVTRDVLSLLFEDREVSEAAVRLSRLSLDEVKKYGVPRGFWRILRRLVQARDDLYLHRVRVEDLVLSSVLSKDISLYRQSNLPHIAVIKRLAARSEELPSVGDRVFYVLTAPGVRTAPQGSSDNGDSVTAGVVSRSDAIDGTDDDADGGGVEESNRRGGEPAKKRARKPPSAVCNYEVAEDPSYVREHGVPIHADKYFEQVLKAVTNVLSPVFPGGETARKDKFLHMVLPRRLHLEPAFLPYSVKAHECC

SMILES	IC50 [1] [nM]	IC50 [2] [nM]	EC50 (HCMV Strain AD169) [nM]	EC50 (VZV) [nM]	EC50 (HSV-1 Strain F) [nM]
COc1nc(-c2cccnc2)c(O[C@H]2CCN3C(=O)OC[C@@H]3C2)cc1C(=O)NCc1ccc(Cl)cc1 [Compound 40]	15.9	10.2	206	200	123
COc1nc(-c2cnc(N)c(F)c2)c(O[C@H]2CCN3C(=O)OC[C@@H]3C2)cc1C(=O)NCc1ccc(Cl)cc1 [Compound 46]	4.69	1.53	165	121	51.6
COc1nc(-c2cnn(C(F)F)c2)c(O[C@H]2CCN3C(=O)OC[C@@H]3C2)cc1C(=O)NCc1ccc(Cl)c(F)c1 [Compound 55]	3.16	5.38	161	178	102
COc1nc(-c2cnn(C(F)F)c2)c(O[C@H]2CCN3C(=O)OC[C@@H]3C2)cc1C(=O)NCc1ccc(C#N)cc1 [Compound 56]	2.08	6.48	102	123	36.3
COc1nc(-c2cnn(C(F)F)c2)c(O[C@H]2CCN3C(=O)OC[C@@H]3C2)cc1C(=O)NCc1ccc(C#N)c(F)c1 [Compound 58]	2.95	0.259	59.3	103	63.4
COc1nc(-c2cnco2)c(O[C@H]2CCN3C(=O)OC[C@@H]3C2)cc1C(=O)NCc1ccc(C#N)cc1 [Compound 60]	6.32	0.351	29.8	90.4	65
O=C(NCc1ccc(Cl)cc1)c1cc(O[C@H]2CCN3C(=O)OC[C@@H]3C2)c(-c2cnn(C(F)F)c2)nc1OCCO [Compound 84]	3.33	0.627	116	140	113
COCCOc1nc(-c2cnn(C(F)F)c2)c(O[C@H]2CCN3C(=O)OC[C@@H]3C2)cc1C(=O)NCc1ccc(Cl)cc1 [Compound 85]	15.6	1.47	187	342	143
CC(C)(O)COc1nc(-c2cnn(C(F)F)c2)c(O[C@H]2CCN3C(=O)OC[C@@H]3C2)cc1C(=O)NCc1ccc(Cl)cc1 [Compound 86]	8.84	2.96	213	232	130

The next lines start with results.

IC50 [1] [nM]	IC50 [2] [nM]	SMILES	EC50 (HCMV Strain AD169) [nM]	EC50 (VZV) [nM]	EC50 (HSV-1 Strain F) [nM]
1.44	0.0412	COc1nc(-c2nc(C)ns2)c(O[C@H]2CCN3C(=O)OC[C@@H]3C2)cc1C(=O)NCc1ccc(Cl)cc1 [Compound 61]	60.1	70.8	49
4.3	0.252	COc1nc(-c2ncco2)c(O[C@H]2CCN3C(=O)OC[C@@H]3C2)cc1C(=O)NCc1ccc(Cl)cc1 [Compound 62]	73	157	129
16.4	5.28	COc1nc(N2CC(F)(F)C2)c(O[C@H]2CCN3C(=O)OC[C@@H]3C2)cc1C(=O)NCc1ccc(Cl)cc1 [Compound 65]	376	758	877
15	14.5	COc1nc(N2CC(C(C)(C)O)C2)c(O[C@H]2CCN3C(=O)OC[C@@H]3C2)cc1C(=O)NCc1ccc(Cl)cc1 [Compound 70]	194	409	278
8.36	0.0532	COc1nc(-c2nc(C)no2)c(O[C@H]2CCN3C(=O)OC[C@@H]3C2)cc1C(=O)NCc1ccc(Cl)cc1 [Compound 82]	83.5	103	73.9
11.7	6.05	COc1nc(-c2nnc(C3CC3)s2)c(O[C@H]2CCN3C(=O)OC[C@@H]3C2)cc1C(=O)NCc1ccc(Cl)cc1 [Compound 83]	153	110	83.5
55.9	21.3	COc1nc(Br)c(O[C@H]2CCN3C(=O)OC[C@@H]3C2)cc1C(=O)NCc1ccc(Cl)cc1 [Int-3]	822	651	832
